Where a SMILES comes first, the peptide text is derived from it. Bridges are numbered along the chain shown (N, C = ends). [ ]: non-standard residue; d: D form. The star is where a group is joined. Bip = N[C@@H](Cc1ccc(-c2ccccc2)cc1)C(=O)O; Cha = N[C@@H](CC1CCCCC1)C(=O)O; Carboxymethyl = O=C(O)C*; NMeA = CN[C@@H](C)C(=O)O; Orn = NCCC[C@H](N)C(=O)O; Aun = NCCCCCCCCCCC(=O)O; Dab = NCC[C@H](N)C(=O)O; AEEA = NCCOCCOCC(=O)O
The compounds below were run against T1, PD-1/PD-L1 interaction (PE-labeled human PD-L1-Ig binding to Jurkat cell line over-expressing human PD-1) (Homo sapiens, UniProt Q15116) (assay: Jurkat-PD-1 Cell Binding High-Content Screening Assay (CBA)). Settings: Jurkat-hPD-1 cells, PE-labeled PD-L1-Ig 20 nM final; read-out: Jurkat HPD1 PDL1 IC50.
T1 construct: expressed in transfected cells; host or cells: Jurkat
T1 sequence (Q15116 25-288): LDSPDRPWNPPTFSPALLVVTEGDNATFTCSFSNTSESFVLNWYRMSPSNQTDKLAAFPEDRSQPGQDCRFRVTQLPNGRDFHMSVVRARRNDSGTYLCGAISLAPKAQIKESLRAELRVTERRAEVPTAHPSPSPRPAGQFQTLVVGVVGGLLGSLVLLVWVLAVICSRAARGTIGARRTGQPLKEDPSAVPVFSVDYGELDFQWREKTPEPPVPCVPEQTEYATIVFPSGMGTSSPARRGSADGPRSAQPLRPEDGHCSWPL
Method in brief: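 High-content imaging read-out of PE-PD-L1-Ig binding (20 nM final, 1 h) to Jurkat-hPD-1 cells, after 2 h compound exposure at 37 °C in DMEM with 10% FCS. Nuclei counterstained with Hoechst 33342 after paraformaldehyde fixation.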
With `CC(C)C[C@H]1NC(=O)[C@H](C)N(C)C(=O)[C@H](Cc2ccc(OCC(=O)O)cc2)NC(=O)[C@H](Cc2ccc(-c3ccccc3)cc2)NC(=O)[C@H](Cc2ccc(OCC(=O)O)cc2)NC(=O)[C@H](Cc2c[nH]c3ccccc23)NC(=O)[C@H](CC(=O)O)NC(=O)[C@H](Cc2ccc(OCC(=O)O)cc2)NC(=O)[C@H]([C@@H](C)O)NC(=O)CSC[C@@H](C(=O)N[C@@H](CCN)C(=O)NCCOCCOCC(=O)NCCCCCCCCCCC(=O)O)NC(=O)[C@H]([C@@H](C)O)NC(=O)[C@H](C(C)C)NC(=O)[C@H](CC2CCCCC2)NC(=O)[C@H](CC(N)=O)NC1=O` [Example 1383] ({CH2CO}-TY(Carboxymethyl)DWY(Carboxymethyl)[Bip]Y(Carboxymethyl)[NMeA][dL]N[Cha]VTC[Dab][AEEA][Aun]-OH; thioether N-14) the IC50 was 101 nM. Compound `CC(C)C[C@H]1NC(=O)[C@H](C)N(C)C(=O)[C@H](Cc2ccc(OCC(=O)O)cc2)NC(=O)[C@H](Cc2ccc(-c3ccccc3)cc2)NC(=O)[C@H](Cc2ccc(OCC(=O)O)cc2)NC(=O)[C@H](Cc2c[nH]c3ccccc23)NC(=O)[C@H](CC(=O)O)NC(=O)[C@H](Cc2ccc(OCC(=O)O)cc2)NC(=O)[C@H]([C@@H](C)O)NC(=O)CSC[C@@H](C(=O)N[C@@H](CCN)C(=O)NCCOCCOCC(=O)NCCCCCCCCCCC(=O)O)NC(=O)[C@H](CCCN)NC(=O)[C@H](C(C)C)NC(=O)[C@H](CC2CCCCC2)NC(=O)[C@H](CC(N)=O)NC1=O` [Example 1384] ({CH2CO}-TY(Carboxymethyl)DWY(Carboxymethyl)[Bip]Y(Carboxymethyl)[NMeA][dL]N[Cha]V[Orn]C[Dab][AEEA][Aun]-OH; thioether N-14) has an IC50 of 193 nM. With `CC(C)C[C@H]1NC(=O)[C@H](C)N(C)C(=O)[C@H](Cc2ccc(OCC(=O)O)cc2)NC(=O)[C@H](Cc2ccc(-c3ccccc3)cc2)NC(=O)[C@H](Cc2ccc(OCC(=O)O)cc2)NC(=O)[C@H](Cc2c[nH]c3ccccc23)NC(=O)[C@H](CC(=O)O)NC(=O)[C@H](Cc2ccc(OCC(=O)O)cc2)NC(=O)[C@H]([C@@H](C)O)NC(=O)CSC[C@@H](C(=O)N[C@@H](CCN)C(=O)NCCOCCOCC(=O)NCCCCCCCCCCC(=O)O)NC(=O)[C@H](CCC(=O)O)NC(=O)[C@H](C(C)C)NC(=O)[C@H](CC2CCCCC2)NC(=O)[C@H](CC(N)=O)NC1=O` [Example 1386] ({CH2CO}-TY(Carboxymethyl)DWY(Carboxymethyl)[Bip]Y(Carboxymethyl)[NMeA][dL]N[Cha]VEC[Dab][AEEA][Aun]-OH; thioether N-14) the IC50 was 137 nM. `CC(C)C[C@H]1NC(=O)[C@H](C)N(C)C(=O)[C@H](Cc2ccc(OCC(=O)O)cc2)NC(=O)[C@H](Cc2ccc(-c3ccccc3)cc2)NC(=O)[C@H](Cc2ccc(OCC(=O)O)cc2)NC(=O)[C@H](Cc2c[nH]c3ccccc23)NC(=O)[C@H](CC(=O)O)NC(=O)[C@H](Cc2ccc(OCC(=O)O)cc2)NC(=O)[C@H]([C@@H](C)O)NC(=O)CSC[C@@H](C(=O)N[C@@H](CCCN)C(=O)NCCOCCOCC(=O)NCCCCCCCCCCC(=O)O)NC(=O)[C@H]([C@@H](C)O)NC(=O)[C@H](C(C)C)NC(=O)[C@H](CC2CCCCC2)NC(=O)[C@H](CC(N)=O)NC1=O` [Example 1387] ({CH2CO}-TY(Carboxymethyl)DWY(Carboxymethyl)[Bip]Y(Carboxymethyl)[NMeA][dL]N[Cha]VTC[Orn][AEEA][Aun]-OH; thioether N-14) gave an IC50 of 401 nM. With `CC(C)C[C@H]1NC(=O)[C@H](C)N(C)C(=O)[C@H](Cc2ccc(OCC(=O)O)cc2)NC(=O)[C@H](Cc2ccc(-c3ccccc3)cc2)NC(=O)[C@H](Cc2ccc(OCC(=O)O)cc2)NC(=O)[C@H](Cc2c[nH]c3ccccc23)NC(=O)[C@H](CC(=O)O)NC(=O)[C@H](Cc2ccc(OCC(=O)O)cc2)NC(=O)[C@H]([C@@H](C)O)NC(=O)CSC[C@@H](C(=O)N[C@@H](CCCN)C(=O)NCCOCCOCC(=O)NCCCCCCCCCCC(=O)O)NC(=O)[C@H](CCC(=O)O)NC(=O)[C@H](C(C)C)NC(=O)[C@H](CC2CCCCC2)NC(=O)[C@H](CC(N)=O)NC1=O` [Example 1388] ({CH2CO}-TY(Carboxymethyl)DWY(Carboxymethyl)[Bip]Y(Carboxymethyl)[NMeA][dL]N[Cha]VEC[Orn][AEEA][Aun]-OH; thioether N-14) the IC50 was 660 nM.
